The text below walks through data of ChEMBL document CHEMBL4229425, “Discovery and characterization of N-(1,3-dialkyl-1H-indazol-6-yl)-1H-pyrazolo[4,3-b]pyridin-3-amine scaffold as mGlu4 positive allosteric modulators that mitigate CYP1A2 induction liability” (Bioorg Med Chem Lett, 2018).

Data set [1] has as its target T1, CYP1A2 (induction through the aryl hydrocarbon receptor, AhR) (Homo sapiens, UniProt P35869).
T1 sequence (P35869 whole entry): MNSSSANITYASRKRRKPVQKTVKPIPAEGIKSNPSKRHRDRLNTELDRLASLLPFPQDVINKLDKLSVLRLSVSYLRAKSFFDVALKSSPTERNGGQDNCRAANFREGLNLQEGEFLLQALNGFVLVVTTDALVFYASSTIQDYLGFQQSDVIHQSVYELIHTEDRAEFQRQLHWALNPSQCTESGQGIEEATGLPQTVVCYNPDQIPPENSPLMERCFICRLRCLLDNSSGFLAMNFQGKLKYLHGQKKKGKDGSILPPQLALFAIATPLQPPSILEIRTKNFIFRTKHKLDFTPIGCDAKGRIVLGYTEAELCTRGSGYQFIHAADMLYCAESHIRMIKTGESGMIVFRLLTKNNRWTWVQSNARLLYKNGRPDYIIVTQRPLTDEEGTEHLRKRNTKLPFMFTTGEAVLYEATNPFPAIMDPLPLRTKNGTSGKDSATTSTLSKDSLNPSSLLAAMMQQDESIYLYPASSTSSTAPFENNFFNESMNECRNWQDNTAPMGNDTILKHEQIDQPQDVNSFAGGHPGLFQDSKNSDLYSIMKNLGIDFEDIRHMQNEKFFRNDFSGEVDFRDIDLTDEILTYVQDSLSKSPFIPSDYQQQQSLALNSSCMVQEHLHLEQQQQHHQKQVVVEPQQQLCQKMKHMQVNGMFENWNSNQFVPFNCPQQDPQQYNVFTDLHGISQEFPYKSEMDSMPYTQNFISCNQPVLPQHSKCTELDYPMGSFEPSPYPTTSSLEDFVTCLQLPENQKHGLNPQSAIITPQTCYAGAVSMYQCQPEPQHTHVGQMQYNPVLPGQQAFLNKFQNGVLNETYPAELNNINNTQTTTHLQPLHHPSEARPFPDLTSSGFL
The data set can be described thus: Activation of human AhR assessed as induction of CYP1A2 relative to control. The format is ADME. The note with it: read-out: FC.

Data set [2] can be described thus: Fraction unbound in human plasma. The format is ADME, cell-free.
Data set [3] is described as follows: Plasma concentration in rat at 10 mg/kg, po after 1 hr. The format is ADME, organism-based.
The next data set deals with MDR1 (P-gp). The data set can be described thus: Efflux ratio of permeability in MDCK-MDR1 cells. The data set is classed as ADME, cell-based, Canis lupus familiaris. The note with it: dog.
A short description of data set [4]: Unbound brain to plasma concentration ratio in rat at 10 mg/kg, po after 1 hr. The format is ADME, organism-based. The conditions noted are these: brain and plasma, read-out: K(p,uu,brain).
Data set [5] in a line: Brain to plasma partition coefficient, Kp of the compound in rat at 10 mg/kg, po after 1 hr. The format is ADME, organism-based. The conditions noted are these: brain and plasma.
In data set [6] the target is T2, Metabotropic glutamate receptor 4 (Homo sapiens, UniProt Q14833). The data set can be described thus: Positive allosteric modulation of human mGluR4 expressed in CHO cells co-expressing Gqi5 assessed as increase in glutamate-induced calcium flux preincubated for 2.5 mins followed by glutamate addition by Fluo-4-AM dye based fluorescence assay. The data set is classed as functional, cell-based. The note with it: read-out: EC50.

The nature of data set [7]: Fraction unbound in rat plasma. The format is ADME, cell-free.
Data set [8] in a line: Drug uptake in rat brain at 10 mg/kg, po after 1 hr. The note with it: read-out: Drug uptake. The data set is classed as ADME, organism-based.
Data set [9] in a line: Clearance in rat liver microsomes. The data set is classed as ADME, microsome. On the technique in general: Liver microsomes are a subcellular fraction often used to study metabolism.
Another data set deals with T3, Cytochrome P450 1A2 (Homo sapiens, UniProt P05177).
T3 sequence (P05177 whole entry): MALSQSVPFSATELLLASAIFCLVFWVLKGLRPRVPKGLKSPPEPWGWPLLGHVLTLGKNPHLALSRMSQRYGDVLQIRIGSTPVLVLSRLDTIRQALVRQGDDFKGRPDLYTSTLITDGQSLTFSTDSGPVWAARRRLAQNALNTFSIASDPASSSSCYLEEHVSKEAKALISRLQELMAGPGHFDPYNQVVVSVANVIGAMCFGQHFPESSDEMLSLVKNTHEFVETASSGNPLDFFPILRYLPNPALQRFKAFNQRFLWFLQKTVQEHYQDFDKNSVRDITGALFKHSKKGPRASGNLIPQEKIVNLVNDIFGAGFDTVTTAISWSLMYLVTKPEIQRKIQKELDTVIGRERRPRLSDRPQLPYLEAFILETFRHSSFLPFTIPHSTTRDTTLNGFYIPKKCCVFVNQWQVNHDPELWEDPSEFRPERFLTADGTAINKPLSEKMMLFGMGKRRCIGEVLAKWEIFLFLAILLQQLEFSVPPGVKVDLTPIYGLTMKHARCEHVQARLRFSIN
Nature of the data set: Inhibition of CYP1A2 in human liver microsomes. The format is ADME.

Data set [10] deals with T2, Metabotropic glutamate receptor 4. Nature of the data set: Positive allosteric modulation of human mGluR4 expressed in CHO cells co-expressing Gqi5 assessed as increase in glutamate-induced calcium flux at 30 uM preincubated for 2.5 mins followed by glutamate addition by Fluo-4-AM dye based fluorescence assay relative to PHCCC. The format is functional, cell-based. (In general: Calcium assays in cells follow changes in intracellular calcium, usually with a dye or a luminescent sensor.)

Each structure is given as a SMILES string.

T2 sequence (Q14833 whole entry): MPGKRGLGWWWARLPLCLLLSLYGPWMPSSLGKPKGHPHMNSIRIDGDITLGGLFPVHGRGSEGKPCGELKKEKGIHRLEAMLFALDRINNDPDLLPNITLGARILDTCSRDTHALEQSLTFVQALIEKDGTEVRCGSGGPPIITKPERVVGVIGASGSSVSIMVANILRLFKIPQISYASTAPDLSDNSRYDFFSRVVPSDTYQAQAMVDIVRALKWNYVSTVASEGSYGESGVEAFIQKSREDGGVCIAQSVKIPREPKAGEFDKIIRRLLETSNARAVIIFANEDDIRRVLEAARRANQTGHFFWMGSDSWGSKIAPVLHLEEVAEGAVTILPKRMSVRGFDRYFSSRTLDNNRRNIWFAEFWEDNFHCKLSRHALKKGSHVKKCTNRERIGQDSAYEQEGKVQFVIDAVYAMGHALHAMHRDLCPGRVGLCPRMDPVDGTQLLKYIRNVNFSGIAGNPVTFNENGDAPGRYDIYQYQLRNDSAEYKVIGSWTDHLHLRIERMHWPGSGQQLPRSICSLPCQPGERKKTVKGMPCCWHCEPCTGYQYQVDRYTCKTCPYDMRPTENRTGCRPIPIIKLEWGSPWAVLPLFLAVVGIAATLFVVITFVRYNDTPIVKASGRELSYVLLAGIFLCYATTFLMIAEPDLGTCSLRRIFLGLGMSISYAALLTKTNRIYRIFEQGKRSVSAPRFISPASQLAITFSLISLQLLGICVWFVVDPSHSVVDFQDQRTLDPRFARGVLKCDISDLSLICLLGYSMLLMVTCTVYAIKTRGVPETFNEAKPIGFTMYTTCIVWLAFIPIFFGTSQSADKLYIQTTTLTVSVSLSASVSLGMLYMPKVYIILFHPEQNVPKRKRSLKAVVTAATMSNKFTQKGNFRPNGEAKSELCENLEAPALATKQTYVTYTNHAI

For orientation: fraction unbound means free concentration divided by total concentration. A lower fraction unbound goes with little free substance. Usually efflux ratio stands for the permeability from basolateral to apical divided by that in the opposite direction, in the common usage. Usually Kp stands for the ratio of the level in a tissue or fluid to that in plasma or blood. Broadly, the EC50 is the concentration giving half of the maximal effect. For orientation: IC50 means the midpoint of a concentration-inhibition curve. Read a low IC50 as higher potency. Broadly, the Emax is the maximal effect, on the per cent scale that the assay sets. For the compound `Cn1nc(C2CC2)c2ccc(Nc3n[nH]c4cccnc34)cc21`, in [1], the fold induction was found to be 2.3. Also, the figures for the fraction unbound in [2] and in data set [7] were 0.022 and 0.024, respectively. Besides, the results for the concentration at 1 h in data set [3] and in data set [8] were 787 ng/mL and 816 ng/g, respectively. For the same compound, the efflux ratio with MDR1 (P-gp) worked out at 1.2. In addition, the Kp uu at 1 h in data set [4] is 0.3. In [5], this compound came in with a Kp at 1 h of 1.04. The EC50 in data set [6] turned out to be 43 nM. Besides, in data set [9], the CLhep predicted is 21.5 mL/min/kg. For the same compound, inhibition against Cytochrome P450 1A2 was half-maximal at 350 nM (IC50). Moreover, the maximal response (Emax) in data set [10] was 88.7%.
